Values of other authors, collected in patent publication EP2908850B1, “A COMPOSITION COMPRISING GLUCORAPHANIN, MYROSINASE AND A BUFFERED SOLUTION FOR USE IN THE TREATMENT OF NEURODEGENERATIVE DISEASES” (Bramanti, Placido, priority 2012, dated 2014).

Details: state of the art statement

- solubility in water: slightly soluble in water
- stability: unstable
Structure (SMILES): C[S+]([O-])CCCCN=C=S (racemic) [RS,SS-SFN, sulforaphane]
